From patent US10933077B2, “TLR4 inhibitors for the treatment of human infectious and inflammatory disorders” (UNIVERSITY OF PITTSBURGH—OF THE COMMONWEALTH SYSTEM OF …, priority 2010, dated 2021)

What was measured:
[1] = test system: iNOS mRNA; assay: Human NEC tissue explants treated with LPS, iNOS mRNA; type: cell-based; conditions: C34 10 uM, 30 minutes pretreatment; LPS 25 ug/ml, 37° C., 3 hours
Description: (§1) The effect of C34 was then tested on explants of human NEC tissue. These explants were obtained from human infants suffering from NEC and were prepared from NEC-affected portions of the intestine. When explants were treated with LPS (25 ug/ml, 37° C., 3 hours) the level of TNFα mRNA (FIG. 12) and iNOS mRNA (FIG. 13) increased precipitously.

[2] = test system: iNOS mRNA; assay: CFW-NEC mouse model (formula feeding), iNOS mRNA levels; type: in vivo; conditions: 1 mg/kg, i.p., once daily for the first four days of the five day model; relative to RPLO
Description: (§2) Inducible nitric oxide synthase (iNOS) is associated with necrotizing enterocolitis (NEC) in human infants. In a second set of experiments, the CFW-NEC mouse model system for NEC was used to evaluate the effect of various compounds from TABLES 1 and 2 above on iNOS mRNA levels. A model system for NEC was induced in newborn mouse pups by formula feeding, where control animals were breast-fed (Sodhi et al., 2010, Gastroenterol. 138(1):185-196; Richardson et al., 2010, Gastroenterol. 139(3):904-917). […] Note that RPLO stands for 505 ribosomal subunit protein L15, an acknowledged housekeeping gene, which means that it is a constitutive gene expressed at relatively constant levels by all cells and is thus used as a reference for comparing other genes which may vary under experimental conditions. In this same model system, levels of TLR4 mRNA levels were also evaluated. […] In contrast, the level of TLR4 was not increased in FF animals treated with C34 (1 mg/kg, i.p. once daily for the first four days of the five day model) and indeed mRNA levels were 30 percent below normal (see FIG. 14).

[3] = test system: LPS-induced NFkB activation; assay: NFkB-luciferase reporter mice assay (LPS-induced endotoxemia); type: in vivo; conditions: LPS 2 mg/kg plus compound 1 mg/kg i.p.
Description: Compound preparation and delivery. All 65 identified compounds were received in solid form and stored at 4° C. until use. Stock solutions of each compound were made by dissolving the appropriate amount of each compound in dimethyl sulfoxide (DMSO) to yield a concentration of 10 mM. Immediately prior to injection into experimental animals, the compounds were diluted to an experimental concentration of 100 uM in phosphate-buffered saline (PBS). Total concentration of DMSO in the final diluted drug was 1%. Compounds were closely examined to insure that no precipitate formed prior to injection and were stored on ice until injection. All compounds were given via intraperitoneal (i.p.) injection in a total volume of 200 ul using a 1 cc syringe and 27 gauge needle. In all experiments listed below, the compounds were delivered to the experimental mice 30 minutes prior to injection with lipopolysaccharide (LPS) to induce endotoxemia. Control animals not receiving compound received 1% DMSO dissolved in PBS. Following drug injection, the mice were observed closely in their cages for signs of immediate toxicity or adverse reaction to the drug, including but not limited to piloerection, tachypnea, bleeding, abnormal or aggressive behavior, signs of altered mental status, and level of activity.
Induction of endotoxemia. All mice were housed and cared for at the Rangos Research Center, Children's Hospital of Pittsburgh (Pittsburgh, Pa.). All experiments were approved by the Children's Hospital of Pittsburgh Animal Care Committee and by the Institutional Review Board of the University of Pittsburgh. Swiss Webster (CFW) and NFkB-luciferase reporter mice were obtained from The Jackson Laboratory. Throughout the course of all experiments, mice were housed 4 per cage with access to food, water, and standard bedding. Endotoxemia was induced in all experiments by i.p. injection of LPS (Escherichia coli 0111:B4 purified by gel filtration chromatography, >99% pure, Sigma-Aldrich) at a dose of 2 mg/kg for 6 hours. At the end of each experiment, all animals were euthanized by CO2 hypoxia and cervical dislocation.
NFkB-luciferase reporter mice assay. NFkB-luciferase reporter mice, in which the […], were subjected to endotoxemia with or without pretreatment with experimental compounds. The experimental compounds treated by this assay were compounds 1-6, with compounds 1-3 tested first and compounds 4-6 tested later. For both experiments, the mice were 6 weeks old on the date of the experiment. […] After whole body imaging, an additional injection of luciferin is given and animals were euthanized, organs were harvested, and the extent of NFkB activation within various tissues was further analyzed by an additional luminescence image of the individual organs. […]

[4] = test system: TNFα mRNA; assay: Human NEC tissue explants treated with LPS, TNFα mRNA; type: cell-based; conditions: C34 10 uM, 30 minutes pretreatment; LPS 25 ug/ml, 37° C., 3 hours
Description: as §1

[5] = test system: TLR4 mRNA; assay: CFW-NEC mouse model (formula feeding), TLR4 mRNA levels; type: in vivo; conditions: 1 mg/kg, i.p. once daily for the first four days of the five day model
Description: as §2

[6] = Murine hemorrhagic shock (H/S) model, serum AST and ALT (liver damage); type: in vivo, mice; conditions: 1 mg/kg, i.p. divided in two doses (30 minutes prior to H/S and immediately prior to resuscitation); versus PBS
Description: An experiment was performed to test the effect of TLR4 inhibitors and C34 in particular on the tissue damage associated with hemmorhagic shock. A murine model was used in which, under sterile conditions and anesthesia induced using i.p. sodium pentobarbital (20 mg/kg), a left groin exploration was performed, and the left femoral artery was cannulated with tapered polyethylene (PE)-10 tubing and connected to a blood pressure transducer for continuous mean arterial pressure (MAP) monitoring for the duration of the experiment (6 h) as described in Sodhi, et al., 2011, Am. J. Physiol. Gastrointest. Liver Physiol. 300(5):G862-G873. To induce hemorrhagic shock, blood was withdrawn to allow the mean arterial pressure to drop to 25 mmHg over 5 minutes, and the blood pressure was maintained at this level for 150 min. The mice were then resuscitated over 10 min with lactated Ringer's solution. Sham-operated mice underwent anesthesia and femoral cannulation only. In this model system, the extent of liver damage is reflected in increased serum levels of aspartate aminotransferase (AST) and alanine transaminase (ALT).

Question: What does the source list for CC(=O)NC1C(OC(C)C)OC(COC(C)=O)C(OC(C)=O)C1OC(C)=O (centres unmarked) [Compound 34, isopropyl 3,4,6-tri-O-acetyl-2-(acetylamino)-2-deoxyhexopyranoside]?
Answer: LPS-induced increase of iNOS mRNA [1]: substantially reduced; increase of iNOS mRNA level in formula-fed (FF) pups [2]: almost eliminated; NFκB signalling (luciferase imaging) [3]: reduced NFκB signalling; LPS-induced increase of TNFα mRNA [4]: substantially reduced; level of TLR4 mRNA in FF animals [5]: not increased; TLR4 mRNA levels below normal ([5]; FF animals): 30%; increase in serum ALT in H/S animals [6]: inhibited the increases; increase in serum AST in H/S animals [6]: inhibited the increases in AST
